Like-named read-outs stand apart in the source and are kept apart here.
Experiments:
Assay type in all cases: cell-based, human cytomegalovirus (HCMV)
RV-HG (wt-HCMV) = assay: HCMV fluorescence reduction assay (GFP-RA)
Procedure: (§1) HCMV Fluorescence Reduction Assay (GFP-RA)
(§2) The susceptibilities of recombinant HCMV laboratory strains expressing GFP were determined by a GFP-based fluorescence reduction assay. For standard assays, 1.5×10^4 NHDF cells/well were cultured in black 96-well plates (Greiner Bio-One, Germany) and infected with either HCMV-GFP (MOI, 0.1) or RV-HG (MOI, 0.2 to 0.5). After virus adsorption, the virus inoculum was replaced with 200 μl fresh medium. Thereafter, 100 μl medium containing the test compounds was added to wells of horizontal row G, followed by serial 3-fold dilutions up to row A. All drug concentrations were tested at least in duplicate. Wells of the horizontal row H served as the virus control. Plates were incubated at 37° C. for 7 days. The medium was replaced by 200 μl PBS, and GFP units (GFPU) were determined by a charge-coupled-device-camera-based fluorescence detector (FluoBox; Bayer Technology Services GmbH, Leverkusen, Germany), which captures 96 images simultaneously. Drug effects were calculated as a percentage of reduction in GFPU in the presence of each drug concentration compared to the GFPU determined in the absence of drug. EC50 and EC90 values (drug concentrations producing 50% and 90% reduction in GFPU) were calculated using nonlinear regression curve fit with a variable slope. GraphPad Prism 3.02 or 4.0 software (GraphPad Software Inc., La Jolla, Calif.) was used for all analyses.
(§3) The HCMV AD169-derived bacterial artificial chromosome (BAC) pHG served as the backbone for the construction of the mutant viruses. The markerless introduction of point mutations into pHG was done using a two-step recombination protocol according to the en passant method. Briefly, a recombination fragment containing the I-SceI-AphAI cassette from plasmid pEPKan-S was obtained by PCR using primers containing ˜60 bp of homology to the intended integration site in ORF UL56 of BAC pHG and ˜20 bp specific for pEPKan-S. This fragment was electroporated into Escherichia coli GS1783 that harbored the pHG BAC. […] After successful kanamycin selection, all non-HCMV sequences were removed by an intrabacterial ISceI digest and a subsequent second Red recombination, resulting in the scarless repair of the mutated UL56 gene in the background of BAC pHG. The integrity of the generated BACs was confirmed by restriction enzyme digestion and sequencing. To reconstitute virus mutants, the recombinant BACs were transfected into permissive MRC5 cells. At least two independent virus clones per mutation were generated and evaluated.

RV-HG UL56-V236M = assay: GFP-RA, marker transfer mutant
Procedure: as §1, §2, §3

RV-HG UL56-L241P = assay: GFP-RA, marker transfer mutant
Procedure: as §1, §2, §3

RV-HG UL56-V231L = assay: GFP-RA, marker transfer mutant
Procedure: as §1, §2, §3

RV-HG UL56-R369M = assay: GFP-RA, marker transfer mutant; details: for Resistance index (RI) = EC50 indicated RV-HG mutant/EC50 RV-HG wt: RV-HG UL56-R369M vs RV-HG wt
Procedure: as §1, §2, §3

RV-HG UL56-C325Y = assay: GFP-RA, marker transfer mutant
Procedure: as §1, §2, §3

RV-HG UL56-L241P/R369S = assay: GFP-RA, marker transfer mutant; details: for Resistance index (RI) = EC50 indicated RV-HG mutant/EC50 RV-HG wt: RV-HG UL56-L241P/R369S vs RV-HG wt
Procedure: as §1, §2, §3

RV-HG UL56-R369S = assay: GFP-RA, marker transfer mutant
Procedure: as §1, §2, §3

RV-HG UL56-C325Yrev = assay: GFP-RA, marker transfer revertant
Procedure: as §1, §2, §3

RV-HG-UL56 mutants = assay: GFP-RA, drug susceptibility profile of the virus mutants; details: fluorescence reduction assays; for BAY 38-4766 and BDCRB with the exception of the strain carrying UL56 R369M
Procedure: as §1, §2
as §3, with “The integrity of the generated BACs was confirmed by restriction enzyme digestion and sequencing.” left out

[1] = Human betaherpesvirus 5, RV-HG UL56-V231L, fluorescence reduction assay, mean ± SD, read-out: EC50
[2] = Human betaherpesvirus 5, RV-HG UL56-R369M, fluorescence reduction assay, mean ± SD, read-out: EC50
[3] = Human betaherpesvirus 5, RV-HG UL56-L241P/R369S, fluorescence reduction assay, mean ± SD, read-out: EC50
[4] = Human betaherpesvirus 5, RV-HG UL56-R369S, fluorescence reduction assay, mean ± SD, read-out: EC50
[5] = Human betaherpesvirus 5, RV-HG (wt-HCMV), fluorescence reduction assay, mean ± SD, read-out: EC50
[6] = Human betaherpesvirus 5, RV-HG UL56-V236M, fluorescence reduction assay, mean ± SD, read-out: EC50
[7] = Human betaherpesvirus 5, RV-HG UL56-L241P, fluorescence reduction assay, mean ± SD, read-out: EC50
[8] = Human betaherpesvirus 5, RV-HG UL56-C325Y, fluorescence reduction assay, mean ± SD, read-out: EC50
[9] = Human betaherpesvirus 5, RV-HG UL56-C325Yrev, fluorescence reduction assay, mean ± SD, read-out: EC50

Structure (SMILES)	EC50 (RV-HG UL56-V231L; [1])	EC50 (RV-HG UL56-R369M; [2])	EC50 (RV-HG UL56-L241P/R369S; [3])	EC50 (RV-HG UL56-R369S; [4])	sensitivity of the RV-HG-UL56 mutants compared with the parental wild-type virus RV-HG (RV-HG-UL56 mutants)	EC50 (RV-HG (wt-HCMV); [5])	EC50 (RV-HG UL56-V236M; [6])	EC50 (RV-HG UL56-L241P; [7])	EC50 (RV-HG UL56-C325Y; [8])	EC50 (RV-HG UL56-C325Yrev; [9])	further results
Nc1nc2c(ncn2COCCO)c(=O)[nH]1 [Aciclovir]	29000 ± 9000 nM	88000 ± 29000 nM	81000 ± 33000 nM	45000 ± 10000 nM	–	–	–	–	–	–	EC50 (RV-HG (wt-HCMV); Human betaherpesvirus 5): 74000 ± 40000 nM; EC50 (RV-HG UL56-V236M; Human betaherpesvirus 5): 80000 ± 21000 nM; EC50 (RV-HG UL56-L241P; Human betaherpesvirus 5): 53000 ± 12000 nM; EC50 (RV-HG UL56-C325Y; Human betaherpesvirus 5): 49000 ± 16000 nM; EC50 (RV-HG UL56-C325Yrev; Human betaherpesvirus 5): 55000 ± 18000 nM
CN(C)c1cccc2c(S(=O)(=O)Nc3ccc(NC(=O)C(C)(C)CO)cc3)cccc12 [BAY384766]	360 ± 80 nM	–	–	–	comparably active	410 ± 150 nM	330 ± 80 nM	340 ± 140 nM	1070 ± 140 nM	580 ± 60 nM	EC50 (RV-HG UL56-R369M; Human betaherpesvirus 5): 1750 ± 160 nM; Resistance index (RI) = EC50 indicated RV-HG mutant/EC50 RV-HG wt (RV-HG UL56-R369M): 4; EC50 (RV-HG UL56-L241P/R369S; Human betaherpesvirus 5): 840 ± 310 nM; Resistance index (RI) = EC50 indicated RV-HG mutant/EC50 RV-HG wt (RV-HG UL56-L241P/R369S): 2; EC50 (RV-HG UL56-R369S; Human betaherpesvirus 5): 680 ± 130 nM
OC[C@H]1O[C@@H](n2c(Br)nc3cc(Cl)c(Cl)cc32)[C@H](O)[C@@H]1O [BDCRB]	–	–	–	–	comparably active	–	–	–	–	–	EC50 (RV-HG (wt-HCMV); RV-HG (wt-HCMV), fluorescence reduction assay, mean ± SD, read-out: EC50): 330 ± 120 nM; EC50 (RV-HG UL56-V236M; RV-HG UL56-V236M, fluorescence reduction assay, mean ± SD, read-out: EC50): 170 ± 30 nM; EC50 (RV-HG UL56-L241P; RV-HG UL56-L241P, fluorescence reduction assay, mean ± SD, read-out: EC50): 270 ± 40 nM; EC50 (RV-HG UL56-V231L; RV-HG UL56-V231L, fluorescence reduction assay, mean ± SD, read-out: EC50): 210 ± 40 nM; EC50 (RV-HG UL56-R369M; RV-HG UL56-R369M, fluorescence reduction assay, mean ± SD, read-out: EC50): 110 ± 50 nM; EC50 (RV-HG UL56-C325Y; RV-HG UL56-C325Y, fluorescence reduction assay, mean ± SD, read-out: EC50): 300 ± 40 nM; EC50 (RV-HG UL56-L241P/R369S; RV-HG UL56-L241P/R369S, fluorescence reduction assay, mean ± SD, read-out: EC50): 300 ± 140 nM; EC50 (RV-HG UL56-R369S; RV-HG UL56-R369S, fluorescence reduction assay, mean ± SD, read-out: EC50): 190 ± 20 nM; EC50 (RV-HG UL56-C325Yrev; RV-HG UL56-C325Yrev, fluorescence reduction assay, mean ± SD, read-out: EC50): 290 ± 40 nM
Nc1ccn(C[C@@H](CO)OCP(=O)(O)O)c(=O)n1 [Cidofovir]	90 ± 20 nM	180 ± 110 nM	200 ± 110 nM	160 ± 50 nM	did not differ	250 ± 170 nM	260 ± 180 nM	210 ± 90 nM	350 ± 50 nM	320 ± 130 nM	–
N#CC1(C(=O)Nc2cc(F)cc(NS(=O)(=O)c3ccc(-c4noc(-c5cccc(N)n5)n4)cc3)c2)CC1 [Formula (X), N-{3-[({4-[5-(6-Aminopyridin-2-yl)-1,2,4-oxadiazol-3-yl]phenyl}sulfonyl)amino]-5-fluorophenyl}-1-cyanocyclopropanecarboxamide]	7.1 ± 1.2 nM	96 ± 18 nM	41.6 ± 18 nM	29.5 ± 13.7 nM	–	14.1 ± 7.9 nM	8.6 ± 1.3 nM	18.3 ± 10 nM	36.7 ± 3.9 nM	31.7 ± 2.4 nM	Resistance index (RI) = EC50 indicated RV-HG mutant/EC50 RV-HG wt (RV-HG UL56-R369M): 7; Resistance index (RI) = EC50 indicated RV-HG mutant/EC50 RV-HG wt (RV-HG UL56-L241P/R369S): 3; Resistance index (RI) = EC50 indicated RV-HG mutant/EC50 RV-HG wt (RV-HG UL56-R369S; RV-HG UL56-R369S vs RV-HG wt): 2
O=C(O)P(=O)(O)O [Foscarnet]	–	76000 ± 25000 nM	62000 ± 30000 nM	61000 ± 21000 nM	did not differ	111000 ± 55000 nM	76000 ± 35000 nM	115000 ± 71000 nM	126000 ± 20000 nM	178000 ± 12000 nM	EC50 (RV-HG UL56-V231L; Human betaherpesvirus 5): 67000 ± 18000 nM
CC(C)Nc1nc2cc(Cl)c(Cl)cc2n1[C@H]1O[C@@H](CO)[C@H](O)[C@@H]1O [Maribavir]	–	–	–	80 ± 30 nM	–	180 ± 110 nM	–	140 ± 70 nM	290 ± 140 nM	180 ± 70 nM	–

Source: patent US20140193802A1, “IDENTIFICATION OF AN ALTERED THERAPEUTIC SUSCEPTIBILITY TO ANTI-HCMV COMPOUNDS AND OF A RESISTANCE AGAINST ANTI-HCMV COMPOUNDS” (priority 2012, published 2014)
